Data set [1] deals with T1, NF-kappa-B inhibitor alpha (Homo sapiens) (UniProt P25963).
T1 sequence (whole entry): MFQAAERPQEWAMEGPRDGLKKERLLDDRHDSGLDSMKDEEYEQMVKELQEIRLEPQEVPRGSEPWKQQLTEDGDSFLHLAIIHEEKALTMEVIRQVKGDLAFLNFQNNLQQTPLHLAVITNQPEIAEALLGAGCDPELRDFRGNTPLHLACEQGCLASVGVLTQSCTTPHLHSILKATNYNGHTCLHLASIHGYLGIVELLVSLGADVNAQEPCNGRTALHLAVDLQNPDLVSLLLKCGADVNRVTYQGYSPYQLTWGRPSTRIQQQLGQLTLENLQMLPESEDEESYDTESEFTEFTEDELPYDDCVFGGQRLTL
Description: Inhibition of IkappaBalpha phosphorylation in human anti-CD3/anti-CD28 stimulated Jurkat T cells at 10 uM pretreated with cells followed by anti-CD3/anti-CD28 stimulation measured up to 60 mins immunoblot analysis. The data set is classed as cell-based. On the technique in general: A western blot detects proteins with antibodies after separation by electrophoresis.

In data set [2] the test system is Jurkat. Nature of the data set: Inhibition of NFkappaB activation in human anti-CD3/anti-CD28 stimulated Jurkat T cells at 10 uM measured by renilla luciferase reporter gene assay relative to control. The data set is classed as cell-based.
The test system of data set [3] is Jurkat. Nature of the data set: Immunosuppressive activity in human PMA/ionomycin stimulated Jurkat T cells assessed as suppression of IL2 production pretreated with cells followed by PMA/ionomycin stimulation measured after 13 hrs by ELISA. The data set is classed as functional, cell-based. In general terms: An ELISA detects its analyte on a solid surface through an enzyme-linked reagent.

Data set [4] is described as follows: Half life in human liver S9 fraction at 5 uM in presence of NADPH by LC-MS/MS analysis. The data set is classed as ADME, subcellular.
Data set [5] can be described thus: Half life in rat liver […] S9 fraction at 5 uM in presence of NADPH by LC-MS/MS analysis. The data set is classed as ADME, subcellular. On the technique in general: Liver microsomes are a subcellular fraction often used to study metabolism.
Data set [6] is described as follows: Cytotoxicity against human Jurkat T cells assessed as cell survival at 10 uM measured after 3 days by MTT assay. The conditions noted are these: read-out: Survival. The data set is classed as toxicity, cell-based.
In data set [7] the target is T2, Nuclear factor of activated T-cells, cytoplasmic 1 (Homo sapiens) (UniProt O95644).
T2 sequence (whole entry): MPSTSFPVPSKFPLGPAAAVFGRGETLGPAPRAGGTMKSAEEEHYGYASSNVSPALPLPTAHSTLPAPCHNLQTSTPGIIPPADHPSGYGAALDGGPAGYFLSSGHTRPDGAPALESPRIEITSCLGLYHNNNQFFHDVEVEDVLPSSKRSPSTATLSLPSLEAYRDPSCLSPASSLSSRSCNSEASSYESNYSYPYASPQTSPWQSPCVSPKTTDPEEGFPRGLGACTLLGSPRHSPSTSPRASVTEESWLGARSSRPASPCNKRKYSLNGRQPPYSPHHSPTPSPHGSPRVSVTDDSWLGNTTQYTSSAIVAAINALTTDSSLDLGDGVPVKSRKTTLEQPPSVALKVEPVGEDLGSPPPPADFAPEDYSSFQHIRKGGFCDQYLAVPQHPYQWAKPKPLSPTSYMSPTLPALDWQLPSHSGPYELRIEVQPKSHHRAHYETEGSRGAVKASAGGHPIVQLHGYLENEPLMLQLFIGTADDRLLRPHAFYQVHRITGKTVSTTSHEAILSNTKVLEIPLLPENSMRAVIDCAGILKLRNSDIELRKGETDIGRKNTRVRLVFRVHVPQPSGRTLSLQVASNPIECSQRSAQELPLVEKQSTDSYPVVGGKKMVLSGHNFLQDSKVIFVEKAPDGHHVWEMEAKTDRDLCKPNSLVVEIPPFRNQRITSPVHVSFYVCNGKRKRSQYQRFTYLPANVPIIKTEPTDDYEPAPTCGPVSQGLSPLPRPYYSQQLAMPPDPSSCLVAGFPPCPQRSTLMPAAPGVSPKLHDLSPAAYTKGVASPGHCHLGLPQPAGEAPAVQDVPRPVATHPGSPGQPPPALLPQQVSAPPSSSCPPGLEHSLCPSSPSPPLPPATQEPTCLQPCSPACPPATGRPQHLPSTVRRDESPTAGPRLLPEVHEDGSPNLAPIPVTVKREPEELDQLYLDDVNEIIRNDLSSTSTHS
Description: Reduction in NFATc1 nuclear localization in human anti-CD3/anti-CD28 stimulated Jurkat T cells at 10 ug measured after 15 mins by SDS-PAGE and immunoblot analysis. The data set is classed as cell-based.

The subject of data set [8] is Jurkat. Nature of the data set: Immunosuppressive activity in human anti-CD3/anti-CD28 stimulated Jurkat T cells assessed as suppression of IL2 production at 10 uM pretreated with cells followed by anti-CD3/CD28 stimulation measured after 13 hrs by ELISA. The data set is classed as functional.
Data set [9] is described as follows: Half life in mouse liver […] S9 fraction at 5 uM in presence of NADPH by LC-MS/MS analysis. The data set is classed as ADME, subcellular.
Data set [10] addresses T3, Inhibitor of nuclear factor kappa-B kinase subunit beta (Homo sapiens) (UniProt O14920).
T3 sequence (whole entry): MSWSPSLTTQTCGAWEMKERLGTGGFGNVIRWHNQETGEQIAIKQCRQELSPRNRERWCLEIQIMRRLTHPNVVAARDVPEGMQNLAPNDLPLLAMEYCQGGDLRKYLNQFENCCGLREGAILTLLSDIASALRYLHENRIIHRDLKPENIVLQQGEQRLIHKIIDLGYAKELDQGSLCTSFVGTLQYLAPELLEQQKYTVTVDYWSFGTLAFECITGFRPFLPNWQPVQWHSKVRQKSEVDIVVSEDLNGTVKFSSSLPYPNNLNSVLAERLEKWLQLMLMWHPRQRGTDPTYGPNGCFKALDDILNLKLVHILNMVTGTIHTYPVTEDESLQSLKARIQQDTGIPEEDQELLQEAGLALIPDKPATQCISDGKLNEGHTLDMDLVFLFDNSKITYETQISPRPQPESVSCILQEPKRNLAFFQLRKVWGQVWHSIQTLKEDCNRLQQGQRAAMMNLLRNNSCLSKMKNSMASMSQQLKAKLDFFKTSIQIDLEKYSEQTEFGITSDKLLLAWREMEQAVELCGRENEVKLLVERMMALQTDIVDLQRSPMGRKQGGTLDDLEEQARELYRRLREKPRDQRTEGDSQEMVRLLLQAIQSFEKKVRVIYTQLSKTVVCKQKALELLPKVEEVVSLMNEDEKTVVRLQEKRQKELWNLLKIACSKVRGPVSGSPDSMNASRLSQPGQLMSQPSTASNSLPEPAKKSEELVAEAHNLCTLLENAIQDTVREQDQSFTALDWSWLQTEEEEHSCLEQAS
Description: Inhibition of recombinant full length human N-terminal His6-tagged IKKbeta expressed in baculovirus infected sf21 cells at 10 uM using IKKtide as substrate after 40 mins in presence of [gamma33P]ATP by scintillation counting method relative to control.

Data set [11] deals with T4, CYP2C9 (Homo sapiens, UniProt P11712). Description: Inhibition of recombinant human CYP2C9 expressed in baculosomes at 10 uM preincubated with protein prior to substrate addition measured after 40 mins in presence of NADP regeneration system by fluorimetric analysis. The data set is classed as ADME.
T4 sequence (P11712 whole entry): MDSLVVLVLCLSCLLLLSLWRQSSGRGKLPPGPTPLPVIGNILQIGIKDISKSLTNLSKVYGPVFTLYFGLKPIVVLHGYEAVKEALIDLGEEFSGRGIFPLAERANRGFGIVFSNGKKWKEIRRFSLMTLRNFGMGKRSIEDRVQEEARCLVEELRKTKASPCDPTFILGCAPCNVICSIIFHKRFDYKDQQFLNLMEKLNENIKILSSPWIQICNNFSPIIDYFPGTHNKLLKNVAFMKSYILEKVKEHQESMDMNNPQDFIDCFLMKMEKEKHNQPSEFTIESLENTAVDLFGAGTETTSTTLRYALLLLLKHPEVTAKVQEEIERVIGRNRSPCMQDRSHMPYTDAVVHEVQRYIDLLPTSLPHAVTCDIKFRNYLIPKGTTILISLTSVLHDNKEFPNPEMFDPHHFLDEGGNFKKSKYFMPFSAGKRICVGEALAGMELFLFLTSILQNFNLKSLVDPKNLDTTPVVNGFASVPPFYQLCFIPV
Data set [12] has as its target T4, CYP2C9. Nature of the data set: Inhibition of recombinant human CYP2C9 expressed in baculosomes at 1 uM preincubated with protein prior to substrate addition measured after 40 mins in presence of NADP regeneration system by fluorimetric analysis. The data set is classed as ADME.

Structures are written as SMILES. Activity calls are given as the source filed them. The calls are words filed in the database; no cut-off is given here.

For `CC(C)c1ccc(Cn2c(=O)c(C(=O)NCCc3ccccc3)cc3c([N+](=O)[O-])cccc32)cc1`, the inhibition result in data set [1], in [2] and in data set [7] was “Active” throughout. In [3], the 50% inhibitory concentration (IC50) worked out at 80 nM. Moreover, the half-life at 5 µM in data set [4], in [5] and in data set [9] was 7 min in each case. The viability at 72 h, 10 µM in [6] amounted to 93%. Moreover, the inhibition at 10 µM in data set [8] was found to be 83%. Also, in data set [10], the inhibition amounted to 29%. Also, the inhibition at 40 min, 10 µM in data set [11] was determined as 65%. Besides, the inhibition at 40 min, 1 µM in data set [12] came to 30%.

As a reminder, the inhibition is the relative decrease from the control value, in per cent. What is called IC50 is the concentration that inhibits the measured activity by half. The half-life is the time in which the quantity being followed falls by half.

The record behind these values is ChEMBL document CHEMBL3860071, “Discovery and structure-activity relationship studies of quinolinone derivatives as potent IL-2 suppressive agents” (Bioorg Med Chem, 2016).
